Earlier results in patent publication US20170252373A1, “COMBINATION THERAPY FOR THE TREATMENT OF HAIR LOSS” (priority 2016, published 2017).

Test system: male-pattern hair loss
Conditions: within three months of starting treatment; also at 24 and 48 months with continued use

## CC(C)(C)NC(=O)[C@H]1CC[C@H]2[C@@H]3CC[C@H]4NC(=O)C=C[C@]4(C)[C@H]3CC[C@]12C [finasteride]
  hair on the scalp: Increased hair on the scalp
